{
  "source": "PubChem BioAssay (NCI)",
  "note": "Several values for one entry are separate records, joined by “and”; a condition that tells them apart may be missing. Equal entries are not always repeated.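 How tested: cells in 96-well plates exposed to compound for 48 hours at five concentrations. The concentration for 50% growth inhibition is given as GI50. TGI: total growth inhibition.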 *1 amine or outer side, *2 acyl side, *3 side chain or, on linkers, in order; H or OH if unused. Where a SMILES comes first, the peptide text is derived from it. Bridges are numbered along the chain shown (N, C = ends). [ ]: non-standard residue; d: D form. The star is where a group is joined. X19 = O=C([C@H](N[*:1])c1ccc(O[C@H]2O[C@@H](CO)[C@@H](O)[C@@H](O)[C@H]2O[C@@H]2O[C@H](CO)[C@H](O)[C@H](O)[C@@H]2O)cc1)[*:2]; X18 = NC(=O)[C@@H](O[*:3])[C@H](N[*:1])C(=O)[*:2]; X20 = O=C([C@H](N[*:1])c1ccc(O)c(Cl)c1)[*:2]; d(aThr) = C[C@@H](O)[C@@H](N)C(=O)O; dHpg = N[C@@H](C(=O)O)c1ccc(O)cc1; X17 = CC(C)C/C=C/C=C/C(=O)*; dOrn = NCCC[C@@H](N)C(=O)O",
  "data": [
    {"tested_on": "MDA-MB-468 breast", "experiment": "DTP human tumour cell line panel, 48 h", "values": [
      {"compound": "C=C1SC(=Nc2ccccc2Cl)N(C(=O)c2sc3ccccc3c2Cl)C1(C)C", "GI50": "12.6 µM", "TGI": "> 100 µM"},
      {"compound": "Cc1nn(-c2ccccc2)c2ncnc(N/N=C/c3ccccc3O)c12", "GI50": "1.56 µM", "TGI": "8.59 µM"},
      {"compound": "CC(C)C/C=C/C=C/C(=O)N[C@@H](CC(N)=O)C(=O)N[C@@H]1C(=O)N[C@H](c2ccc(O)cc2)C(=O)N[C@H](CCCN)C(=O)N[C@H]([C@@H](C)O)C(=O)N[C@H](c2ccc(O)cc2)C(=O)N[C@H](c2ccc(O)cc2)C(=O)N[C@H]([C@H](C)O)C(=O)N[C@H](Cc2ccccc2)C(=O)N[C@H](CCCN)C(=O)N[C@H](c2ccc(O[C@H]3O[C@@H](CO)[C@@H](O)[C@@H](O)[C@H]3O[C@@H]3O[C@H](CO)[C@H](O)[C@H](O)[C@@H]3O)cc2)C(=O)N[C@H]([C@H](C)O)C(=O)N[C@H](c2ccc(O)cc2)C(=O)NCC(=O)N[C@H](CC(C)C)C(=O)N[C@H](C)C(=O)N[C@H](c2ccc(O)c(Cl)c2)C(=O)O[C@@H]1C(N)=O", "note": "(X17-N[X18][dHpg][dOrn][d(aThr)][dHpg][dHpg][dT][dF][dOrn][X19][dT][dHpg]G[dL][dA][X20]; ester 2-C)", "GI50": "19.7 µM", "TGI": "56.7 µM"},
      {"compound": "CCn1cc(C(=O)N/N=C/c2cccc(F)c2)c(=O)c2cc(F)c(N3CCNC(C)C3)c(F)c21", "note": "(centres undefined)", "GI50": "1.64 µM", "TGI": "3.18 µM"},
      {"compound": "O=c1ccccc(-c2ccc(-c3ccco3)cc2)c1O", "GI50": "0.32 µM", "TGI": "3.3 µM"},
      {"compound": "COc1cc([C@@H]2c3cc4c(cc3[C@H](OC(C)=O)[C@H]3COC(=O)[C@H]23)OCO4)cc(OC)c1OC", "GI50": "0.0295 µM", "TGI": "> 100 µM"},
      {"compound": "CNC(=O)c1cncc(/C=C/c2c(C)cccc2C)c1", "GI50": "> 22.7 µM", "TGI": "> 25 µM"},
      {"compound": "Cc1cccc2c1NC(=O)[C@@]21[C@H](C(=O)c2ccccc2)[C@]2(C(=O)Nc3ccccc32)[C@H]2CCCN21", "GI50": "22.3 µM", "TGI": "> 100 µM"},
      {"compound": "COc1ccc(-c2csc(NC(=O)N3CCN(c4cc5c(cc4F)c(=O)c(C(=O)O)cn5C4CC4)CC3)n2)cc1", "GI50": "1.14 µM", "TGI": "8.13 µM"},
      {"compound": "Cc1ccc2c(N/N=C\\c3ccco3)cc(C)nc2n1", "GI50": "2.68 µM", "TGI": "7.47 µM"},
      {"compound": "CCCCNC(=O)Oc1ccc2c(=O)c3sc4c(=O)c5ccccc5c(=O)c4c3c(=O)c2c1", "GI50": "1.45 µM", "TGI": "3.39 µM"},
      {"compound": "C#Cc1cccc(Nc2ncnc3ccc(-c4cnc(Cl)c(NS(C)(=O)=O)c4)cc23)c1", "GI50": "0.178 µM", "TGI": "0.88 µM"},
      {"compound": "O=C(Nc1ccc(Cl)cc1)c1cc2cc(F)ccc2cc1O", "GI50": "2.47 µM", "TGI": "6.17 µM"},
      {"compound": "O=C1/C=C/[C@@H](O)[C@@H]2C[C@@H](O)C[C@H]2/C=C/CCC[C@H](CO)O1", "GI50": "0.419 µM", "TGI": "2.77 µM"},
      {"compound": "O=C(O[C@H]1CN[C@H](C#Cc2cc3ncnc(Nc4ccc(OCc5cccc(F)c5)c(Cl)c4)c3s2)C1)N1CCOCC1", "GI50": "0.391 µM", "TGI": "4.78 µM"},
      {"compound": "O=C1/C(=C/c2ccccc2)CN(CCC(=O)N2C/C(=C\\c3ccccc3)C(=O)/C(=C/c3ccccc3)C2)C/C1=C\\c1ccccc1", "GI50": "9.33 µM", "TGI": "42.8 µM"},
      {"compound": "Cc1cccc2c1O/C(=C\\c1ncc([N+](=O)[O-])n1C)C2=O", "GI50": "1.41 µM", "TGI": "4.01 µM"},
      {"compound": "COc1ccc([C@@H]2[C@@H](O)C(=O)N2c2cc(OC)c(OC)c(OC)c2)cc1", "GI50": "0.0243 µM", "TGI": "0.0677 µM"},
      {"compound": "O=S(=O)(NCCCNc1cc(-c2cn(-c3ccccc3)nc2-c2cccc(O)c2)ccn1)c1cccc2ccccc12", "GI50": "1.85 µM", "TGI": "6.01 µM"},
      {"compound": "COc1ccc(Cl)cc1NC(=O)c1c(NC(=O)C(F)(F)C(F)(F)F)sc2c1CCCCC2", "GI50": "0.765 µM", "TGI": "4.68 µM"},
      {"compound": "COC(=O)c1cc2c3c(cc(O)c2[nH]1)N(C(=O)C1Cc2cc(OC)c(OC)c(OC)c2N1)CC3CCl", "note": "(centres undefined)", "GI50": "< 0.01 µM", "TGI": "< 0.01 µM"},
      {"compound": "COc1cccc(-c2nc(-c3ccc(NC(=O)c4ccccc4)cc3)[nH]c2-c2ccnc(Br)c2)c1", "GI50": "2.87 µM", "TGI": "> 100 µM"},
      {"compound": "O=C1/C(=C/c2ccccc2Br)COc2ccc(O)c(O)c21", "GI50": "1.65 µM", "TGI": "3.94 µM"},
      {"compound": "O=C1c2cccc3cc([N+](=O)[O-])cc(c23)C(=O)N1CCN1CCCC1", "GI50": "0.605 µM", "TGI": "2.44 µM"},
      {"compound": "NC(=O)c1cc(Cl)ccc1NC(=O)c1ccccc1-c1ccccc1", "GI50": "0.448 µM", "TGI": "48.7 µM"},
      {"compound": "COc1cc(C)[nH]c(=O)c1CN1CCc2c(Cl)cc([C@H](OC)C3COC3)c(Cl)c2C1=O", "GI50": "> 100 µM", "TGI": "> 100 µM"},
      {"compound": "Oc1ccc2ccccc2c1N=Nc1ccccn1", "GI50": "1.41 µM", "TGI": "4.89 µM"},
      {"compound": "CN(C)CCCN=c1cc2c(=O)n(CCCN(C)C)c(=O)c3c(NCCCN(C)C)cc4c(O)n(CCCN(C)C)c(=O)c1c4c3-2", "GI50": "1.3 µM", "TGI": "3.58 µM"},
      {"compound": "O=C1CCC2=C3C4CCCCC4C(=O)C4CCCC(OC2C1)C34", "note": "(centres undefined)", "GI50": "1.87 µM", "TGI": "5.2 µM"},
      {"compound": "CC1OC(O[C@H]2/C=C/C=C/C=C/C=C/C=C/C=C/C=C/[C@H](C)[C@@H](O)[C@@H](C)[C@H](C)OC(=O)C[C@H](O)C[C@H](O)CC[C@@H](O)[C@H](O)C[C@H](O)C[C@]3(O)C[C@H](O)[C@@H](C(=O)O)[C@H](C2)O3)C(O)C(N)C1O", "note": "(some centres undefined)", "GI50": "53.3 µM", "TGI": "> 100 µM"},
      {"compound": "COc1ccccc1N1CCN(C(=O)c2ccc(NS(=O)(=O)c3cccc4cccnc34)cc2)CC1", "GI50": "> 28.9 µM", "TGI": "> 100 µM"},
      {"compound": "C[C@@H](Oc1cc(NS(=O)(=O)N2CCC2)nc(SCc2cccc(F)c2F)n1)[C@@H](O)CO", "GI50": "> 100 µM", "TGI": "> 100 µM"},
      {"compound": "O=C(NC1CCN(Cc2ccccc2)CC1)c1cc(C(=O)NC2CCN(Cc3ccccc3)CC2)cc(C(=O)NC2CCN(Cc3ccccc3)CC2)c1", "GI50": "0.866 µM", "TGI": "1.89 µM"},
      {"compound": "COc1c(B(O)O)cccc1-c1nc2c(F)cc3[nH]ncc3c2c2c1CCCC2", "GI50": "1.06 µM", "TGI": "3.69 µM"},
      {"compound": "COc1cc(/C=C2\\CN(S(=O)(=O)c3ccc(C)cc3)C/C(=C\\c3cc(CN4CCCCC4)c(O)c(OC)c3)C2=O)cc(CN2CCCCC2)c1O", "GI50": "1.94 µM", "TGI": "3.99 µM"},
      {"compound": "CCC1CCCCN1C(=S)N/N=C(\\C)c1ccccn1", "note": "(centres undefined)", "GI50": "< 0.0153 µM", "TGI": "0.503 µM"},
      {"compound": "COc1cc2c(Nc3ccc(Br)cc3F)ncnc2cc1OCC1CCN(C)CC1", "GI50": "0.455 µM and 0.452 µM", "TGI": "2.57 µM and 3.53 µM"},
      {"compound": "CC(C)(C)N1CC(OC(N)=O)C1", "GI50": "> 100 µM", "TGI": "> 100 µM"},
      {"compound": "Cc1cc(C(NC(=O)CCCCCNc2cccc3c2C(=O)N(C2CCC(=O)NC2=O)C3=O)c2cccnc2)c(O)c2ncccc12", "note": "(centres undefined)", "GI50": "< 0.01 µM", "TGI": "0.0328 µM"},
      {"compound": "N#C/C(=C/C=C/c1ccccc1)S(=O)c1ccccc1", "note": "(centres undefined)", "GI50": "0.274 µM", "TGI": "0.987 µM"},
      {"compound": "N/C(=N\\c1nc2ccccc2s1)NC(=O)Nc1ccccc1Cl", "GI50": "0.317 µM", "TGI": "5.92 µM"},
      {"compound": "CCC(c1ccc(OC)cc1)C(CC)c1ccc(O)c(CN2CCCC2)c1", "note": "(centres undefined)", "GI50": "1.62 µM", "TGI": "3.69 µM"}
    ]}
  ]
}
